# Results reported in patent publication US20230044787A1, “TRICYCLE DIHYDROIMIDAZOPYRIMIDONE DERIVATIVE, PREPARATION METHOD THEREOF, PHARMACEUTICAL COMPOSITION AND USE THEREOF” (priority 2019, published 2023).
# Target: T1, Lp-PLA2 (Homo sapiens, UniProt Q13093)
# T1 construct: aliquoted and thawed 40 μL of pooled human plasma was previously added; from tissue; host or cells: pooled human plasma
# T1 sequence (Q13093 22-441): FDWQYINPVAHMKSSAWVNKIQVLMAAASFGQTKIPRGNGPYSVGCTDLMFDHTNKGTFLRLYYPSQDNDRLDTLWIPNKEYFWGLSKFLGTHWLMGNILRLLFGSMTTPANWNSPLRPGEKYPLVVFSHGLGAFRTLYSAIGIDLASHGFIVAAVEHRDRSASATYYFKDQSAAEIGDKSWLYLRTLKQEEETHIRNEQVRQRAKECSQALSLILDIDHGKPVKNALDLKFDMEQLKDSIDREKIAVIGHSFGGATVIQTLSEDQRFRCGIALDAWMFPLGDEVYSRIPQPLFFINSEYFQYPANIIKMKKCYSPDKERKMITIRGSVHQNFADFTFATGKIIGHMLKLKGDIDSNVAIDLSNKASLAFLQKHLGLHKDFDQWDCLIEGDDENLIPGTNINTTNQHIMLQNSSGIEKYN
# Test: Lipoprotein-associated phospholipase A2 (Lp-PLA2) human plasma assay (Thio-PAF assay)
# Assay type: biochemical
# Conditions: Comparison of activity data (I); pooled human plasma, 2-thio-PAF substrate, 30-min pre-incubation
# Protocol: Lipoprotein-Associated Phospholipase A2 (Lp-PLA2) Human Plasma Assay
# The amount of sulfhydryl groups is continuously determined by the reaction with CPM (7-diethylamino-3-(4′-maleimidophenyl)-4-methylcoumarin), and the CPM is a maleimide of which fluorescence increases after Michael addition of sulfhydryl group. This assay can detect Lp-PLA2 activity in human plasma, as determined by specific inhibition of Lp-PLA2 inhibitors.
# Thio-PAF assay was performed as quenched 75 μL assay. Compound source plate was prepared for each compound by preparing 1:3 (by volume) serial dilutions in pure DMSO in a 96-well microplate. The compound on the source plate was diluted 20-fold by transferring 3 μL of the compound from the compound source plate into a 96-well microplate pre-added with 57 μL of assay buffer by Rainin multichannel pipette. The assay buffer described above consisted of 50 mM HEPES, pH 7.4, 150 mM NaCl, 1 mM CHAPS. 1 μL of the 20-fold diluted compound was transferred by Rainin multichannel pipette into a 96-well Greiner 655076 (black) microplate to which aliquoted and thawed 40 μL of pooled human plasma was previously added. The plate was shaken for 20 seconds on a microplate shaker to mix well. After a 30-min pre-incubation at room temperature, 10 μL of substrate solution was added to the 96-well Greiner 655076 (black) microplate by Rainin multichannel pipette, in which the substrate solution contained 2.5 mM 2-thio-PAF [from ethanol stock], 32 μM CPM [from DMSO stock], and 3.2 mM NEM (N-ethylmaleimide) [freshly prepared in DMSO per experiment] in assay buffer consisting of 50 mM HEPES, pH 7.4; 150 mM NaCl; 1 mM CHAPS. After 2 min, the reaction was quenched with […] of 5% trifluoroacetic acid (TFA) in water. The plate was centrifuged at 2000 rpm for 1 minute. The plate was read at ex:380/em:485 using a Biotek Synergy H1 (H1MF) microplate reader. IC50 data, curves and QC analysis were performed using GraphPad Prism 6.0 and Excel.
row,Compound,IC50
1,"O=c1nc(OCc2cc(F)c(F)c(F)c2)cc2n1CC13CCC(CC1)N23 [Example 52, 3-((3,4,5-trifluorobenzyl)oxy)-7,8-dihydro-1H,6H,9H-6,8a-ethanopyrrolo[1′,2′:3,4] imidazo[1,2-c]pyrimidin-1-one]",16 nM

# Same assay, conditions: Lp-PLA2 human plasma assay (Thio-PAF), pooled human plasma, 30-min pre-incubation at room temperature
row,Compound,IC50
1,N#Cc1cc(COc2cc3n(c(=O)n2)CC24CCC(CC2)N34)ccc1Oc1ccnc(C(F)(F)F)c1 [Example 51],3.3 nM
2,"O=c1nc(OCc2cc(F)c(F)c(F)c2)cc2n1CC13CCC(CC1)N23 [Example 52, 3-((3,4,5-trifluorobenzyl)oxy)-7,8-dihydro-1H,6H,9H-6,8a-ethanopyrrolo[1′,2′:3,4] imidazo[1,2-c]pyrimidin-1-one]",16 nM
3,"O=c1nc(OCc2cc(F)c(Oc3ccnc(C(F)(F)F)c3)c(F)c2)cc2n1CC13CCC(CC1)CN23 [Example 53, 3-((3,5-difluoro-4-((2-(trifluoromethyl)pyridin-4-yl)oxy)benzyl)oxy)-6,7,8,9-tetrahydro-1H,10H-7,9a-ethanopyrido[1′,2′:3,4] imidazo[1,2-c]pyrimidin-1-one]",14.3 nM
4,"CC12CCCN1c1cc(OCc3cc(F)c(Oc4ccnc(C(F)(F)F)c4)c(F)c3)nc(=O)n1C2 (stereo not shown) [Example 54, 3-((3,5-difluoro-4-((2-(trifluoromethyl)pyridin-4-yl)oxy)benzyl)oxy)-8a-methyl-7,8,8a,9-tetrahydro-1H,6H-pyrrolo[1′,2′:3,4]imidazo [1,2-c]pyrimidin-1-one]",7.6 nM
5,"CC12CCCN1c1cc(OCc3cc(F)c(Oc4ccnc(OC(F)(F)F)c4)c(F)c3)nc(=O)n1C2 (stereo not shown) [Example 55, 3-((3,5-difluoro-4-((2-(trifluoromethoxy)pyridin-4-yl)oxy)benzyl)oxy)-8a-methyl-7,8,8a,9-tetrahydro-1H,6H-pyrrolo[1′,2′:3,4]imidazo [1,2-c]pyrimidin-1-one]",6.5 nM
6,"CC12CCCN1c1cc(OCc3cc(F)c(Oc4cnc(C(F)(F)F)nc4)c(F)c3)nc(=O)n1C2 (stereo not shown) [Example 56, 3-((3,5-difluoro-4-((2-(trifluoromethyl)pyrimidin-5-yl)oxy)benzyl)oxy)-8a-methyl-7,8,8a,9-tetrahydro-1H,6H-pyrrolo[1′,2′:3,4]imidazo [1,2-c]pyrimidin-1-one]",7.7 nM
7,"Cn1cc(Oc2c(F)cc(COc3cc4n(c(=O)n3)CC3(C)CCCN43)cc2F)cn1 (stereo not shown) [Example 57, 3-((3,5-difluoro-4-((1-methyl-1H-pyrazol-4-yl)oxy)benzyl)oxy)-8a-methyl-7,8,8a,9-tetrahydro-1H,6Hpyrrolo[1′,2′:3,4] imidazo[1,2-c]pyrimidin-1-one]",62.2 nM
8,"CC12CCCN1c1cc(OCc3ccc(Oc4ccc(F)c(C(F)(F)F)c4)nc3)nc(=O)n1C2 (stereo not shown) [Example 58, 3-((6-(4-fluoro-3-(trifluoromethyl)phenoxy)pyridin-3-yl)methoxy)-8a-methyl-7,8,8a,9-tetrahydro-1H,6H-pyrrolo[1′,2′:3,4]imidazo [1,2-c]pyrimidin-1-one]",204 nM
9,"CC12CCCN1c1cc(OCc3ccc(Oc4cccc(C(F)(F)F)c4)c(C#N)c3)nc(=O)n1C2 (stereo not shown) [Example 59, 5-(((8a-methyl-1-oxo-7,8,8a,9-tetrahydro-1H,6H-pyrrolo[1′,2′:3,4]imidazo [1,2-c]pyrimidin-3-yl)oxy)methyl)-2-(3-(trifluoromethyl)phenoxy) benzonitrile]",2.4 nM
10,"CC12CCCN1c1cc(OCc3ccc(Oc4ccc(C(F)(F)F)cc4)c(C#N)c3)nc(=O)n1C2 (stereo not shown) [Example 60, 5-(((8a-methyl-1-oxo-7,8,8a,9-tetrahydro-1H,6H-pyrrolo[1′,2′:3,4]imidazo [1,2-c]pyrimidin-3-yl)oxy)methyl)-2-(4-(trifluoromethyl)phenoxy) benzonitrile]",6.6 nM
11,"CC12CCCN1c1cc(OCCc3ccc(Oc4ccc(Cl)c(C(F)(F)F)c4)cc3)nc(=O)n1C2 (stereo not shown) [Example 61, 3-(4-(4-chloro-3-(trifluoromethyl)phenoxy)phenethoxy)-8a-methyl-7,8,8a,9-tetrahydro-1H,6H-pyrrolo[1′,2′:3,4]imidazo [1,2-c]pyrimidin-1-one]",3.4 nM
12,"CC12CCCN1c1cc(OCc3ccc(F)c(F)c3)nc(=O)n1C2 (stereo not shown) [Example 62, 3-((3,4-difluorobenzyl)oxy)-8a-methyl-7,8,8a,9-tetrahydro-1H,6H-pyrrolo[1′,2′:3,4]imidazo [1,2-c]pyrimidin-1-one]",13 nM
13,"CCC12CCCN1c1cc(OCc3cc(F)c(Oc4ccnc(C(F)(F)F)c4)c(F)c3)nc(=O)n1C2 (stereo not shown) [Example 63, 3-((3,5-difluoro-4-((2-(trifluoromethyl)pyridin-4-yl)oxy)benzyl)oxy)-8a-ethyl-7,8,8a,9-tetrahydro-1H,6H-pyrrolo[1′,2′:3,4]imidazo [1,2-c]pyrimidin-1-one]",8.7 nM
14,"CCC12CCCN1c1cc(OCc3cc(F)c(Oc4cnc(C(F)(F)F)nc4)c(F)c3)nc(=O)n1C2 (stereo not shown) [Example 64, 3-((3,5-difluoro-4-((2-(trifluoromethyl)pyrimidin-5-yl)oxy)benzyl)oxy)-8a-ethyl-7,8,8a,9-tetrahydro-1H,6H-pyrrolo[1′,2′:3,4]imidazo [1,2-c]pyrimidin-1-one]",22.6 nM
15,CCC12CCCN1c1cc(OCc3ccc(Oc4cc(C#N)cc(C(F)(F)F)c4)c(F)c3)nc(=O)n1C2 (stereo not shown) [Example 65],12.1 nM
16,"CC12CCCCN1c1cc(OCc3cc(F)c(Oc4ccnc(C(F)(F)F)c4)c(F)c3)nc(=O)n1C2 (stereo not shown) [Example 66, 3-((3,5-difluoro-4-((2-(trifluoromethyl)pyridin-4-yl)oxy)benzyl)oxy)-9a-methyl-6,7,8,9,9a,10-hexahydro-1H-pyrido[1′,2′:3,4]imidazo [1,2-c]pyrimidin-1-one]",6.9 nM
17,"CC12CCCCN1c1cc(OCc3cc(F)c(Oc4cnc(C(F)(F)F)nc4)c(F)c3)nc(=O)n1C2 (stereo not shown) [Example 67, 3-((3,5-difluoro-4-((2-(trifluoromethyl)pyrimidin-5-yl)oxy)benzyl)oxy)-9a-methyl-6,7,8,9,9a,10-hexahydro-1H-pyrido[1′,2′:3,4]imidazo [1,2-c]pyrimidin-1-one]",8.7 nM
18,"Cn1cc(Oc2c(F)cc(COc3cc4n(c(=O)n3)CC3(C)CCCCN43)cc2F)cn1 (stereo not shown) [Example 68, 3-((3,5-difluoro-4-((1-methyl-1H-pyrazol-4-yl)oxy)benzyl)oxy)-9a-methyl-6,7,8,9,9a,10-hexahydro-1H-pyrido[1′,2′:3,4]imidazo [1,2-c]pyrimidin-1-one]",50 nM
19,"CC12CCCCN1c1cc(OCc3ccc(Oc4ccc(F)c(C(F)(F)F)c4)nc3)nc(=O)n1C2 (stereo not shown) [Example 69, 3-((6-(4-fluoro-3-(trifluoromethyl)phenoxy)pyridin-3-yl)methoxy)-9a-methyl-6,7,8,9,9a,10-hexahydro-1H-pyrido[1,2′:3,4]imidazo [1,2-c]pyrimidin-1-one]",325 nM
20,"CC12CCCCN1c1cc(OCc3ccc(Oc4ccc(Cl)c(C(F)(F)F)c4)c(C#N)c3)nc(=O)n1C2 (stereo not shown) [Example 70, 2-(4-chloro-3-(trifluoromethyl)phenoxy)-5-(((-9a-methyl-1-oxo-6,7,8,9,9a,10-hexahydro-1H-pyrido[1′,2′:3,4]imidazo [1,2-c]pyrimidin-3-yl)oxy)methyl)benzonitrile]",6.9 nM
21,"CC12CCCCN1c1cc(OCc3ccc(Oc4cccc(C(F)(F)F)c4)c(C#N)c3)nc(=O)n1C2 (stereo not shown) [Example 71, 5-(((-9a-methyl-1-oxo-6,7,8,9,9a,10-hexahydro-1H-pyrido[1′,2′:3,4]imidazo [1,2-c]pyrimidin-3-yl)oxy)methyl)-2-(3-(trifluoromethyl)phenoxy) benzonitrile]",7.9 nM
22,"CC12CCCCN1c1cc(OCc3ccc(Oc4ccc(Cl)c(F)c4)c(C#N)c3)nc(=O)n1C2 (stereo not shown) [Example 72, 2-(4-chloro-3-fluorophenoxy)-5-(((-9a-methyl-1-oxo-6,7,8,9,9a,10-hexahydro-1H-pyrido[1′,2′:3,4]imidazo [1,2-c]pyrimidin-3-yl)oxy)methyl)benzonitrile]",7.6 nM
23,"CC12CCCCN1c1cc(OCCc3ccc(Oc4ccc(Cl)c(C(F)(F)F)c4)cc3)nc(=O)n1C2 (stereo not shown) [Example 73, 3-(4-(4-chloro-3-(trifluoromethyl)phenoxy)phenethoxy)-9a-methyl-6,7,8,9,9a,10-hexahydro-1H-pyrido[1′,2′:3,4]imidazo [1,2-c]pyrimidin-1-one]",4.8 nM
24,"CC12CCCCN1c1cc(OCc3ccc(F)c(F)c3)nc(=O)n1C2 (stereo not shown) [Example 74, 3-((3,4-difluorobenzyl)oxy)-9a-methyl-6,7,8,9,9a,10-hexahydro-1H-pyrido [1′,2′:3,4]imidazo[1,2-c]pyrimidin-1-one]",22.3 nM
